We go through 33 compounds from ChEMBL document CHEMBL1201862, “PubChem BioAssay data set” (2004).

Active and inactive are the calls of the source. Some results are limits rather than exact numbers.

A short description of data set [1]: C. albicans growth with fluconazole, confirmation, fluorescence, retest (AID 2467). In kind it is functional, cell-based.
Data set [2] is described as follows: NIH-3T3 fibroblast cytotoxicity, dose response, cytotoxicity control, cell-based, fluorescence, Alamar Blue, secondary assay (AID 2327).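 Also: NIH-3T3 mouse fibroblasts cultured with fluconazole at 8 µg/mL.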 In kind it is functional.
For data set [3], the target named is T1, Rac GTPase-activating protein 1 (Homo sapiens, UniProt Q9H0H5).
T1 sequence (Q9H0H5 whole entry): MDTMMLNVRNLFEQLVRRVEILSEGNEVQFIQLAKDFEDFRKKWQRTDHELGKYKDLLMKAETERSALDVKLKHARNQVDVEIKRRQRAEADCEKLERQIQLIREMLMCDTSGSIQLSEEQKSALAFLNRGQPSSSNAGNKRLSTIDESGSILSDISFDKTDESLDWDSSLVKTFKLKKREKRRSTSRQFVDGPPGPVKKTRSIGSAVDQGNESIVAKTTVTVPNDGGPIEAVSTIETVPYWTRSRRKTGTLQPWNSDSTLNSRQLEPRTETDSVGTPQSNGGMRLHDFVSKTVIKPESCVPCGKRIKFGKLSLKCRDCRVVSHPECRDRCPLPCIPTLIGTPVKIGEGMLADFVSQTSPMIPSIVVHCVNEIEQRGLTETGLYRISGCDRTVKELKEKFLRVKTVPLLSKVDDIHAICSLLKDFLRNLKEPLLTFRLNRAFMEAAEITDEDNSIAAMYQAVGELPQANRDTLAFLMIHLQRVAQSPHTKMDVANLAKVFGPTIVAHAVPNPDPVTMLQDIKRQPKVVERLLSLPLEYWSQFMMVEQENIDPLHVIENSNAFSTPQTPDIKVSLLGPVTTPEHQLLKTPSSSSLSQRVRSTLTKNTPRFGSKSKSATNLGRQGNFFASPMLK
The experiment in a line: MgcRacGAP GTPase-activating activity inhibitors, confirmation, biochemical, ADP Hunter fluorescence, primary and confirmatory (AID 624330). It is filed as functional.

The target in another data set is Cytochrome P450 2C9 (Homo sapiens, UniProt P11712).
Sequence of Cytochrome P450 2C9 (P11712 whole entry): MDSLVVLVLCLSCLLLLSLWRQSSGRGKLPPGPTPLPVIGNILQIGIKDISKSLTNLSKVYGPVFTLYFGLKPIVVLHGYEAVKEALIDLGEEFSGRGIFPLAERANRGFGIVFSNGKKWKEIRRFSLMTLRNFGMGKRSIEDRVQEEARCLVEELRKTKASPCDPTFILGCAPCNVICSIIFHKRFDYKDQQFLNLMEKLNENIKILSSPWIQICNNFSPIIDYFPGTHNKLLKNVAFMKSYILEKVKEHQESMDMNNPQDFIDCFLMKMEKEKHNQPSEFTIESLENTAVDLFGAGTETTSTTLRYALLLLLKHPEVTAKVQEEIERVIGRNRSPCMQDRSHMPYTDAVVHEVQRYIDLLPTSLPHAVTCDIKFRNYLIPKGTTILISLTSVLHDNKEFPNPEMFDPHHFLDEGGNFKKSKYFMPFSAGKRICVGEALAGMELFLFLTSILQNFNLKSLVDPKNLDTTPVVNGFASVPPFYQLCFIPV
Data set [4] can be described thus: Luminescence Cell-Based Dose Confirmation HTS to Identify Inhibitors of Platelet Dense Granule Release. [Related pubchem assays: 1663 (Primary HTS), 1678 (Summary of Project)]. It is filed as functional.
The target of the next data set is T2, Cytochrome P450 1A2 (Homo sapiens, UniProt P05177).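 Also: PubChem cytochrome P450 panel assay, CYP1A2 panel member.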
T2 sequence (P05177 whole entry): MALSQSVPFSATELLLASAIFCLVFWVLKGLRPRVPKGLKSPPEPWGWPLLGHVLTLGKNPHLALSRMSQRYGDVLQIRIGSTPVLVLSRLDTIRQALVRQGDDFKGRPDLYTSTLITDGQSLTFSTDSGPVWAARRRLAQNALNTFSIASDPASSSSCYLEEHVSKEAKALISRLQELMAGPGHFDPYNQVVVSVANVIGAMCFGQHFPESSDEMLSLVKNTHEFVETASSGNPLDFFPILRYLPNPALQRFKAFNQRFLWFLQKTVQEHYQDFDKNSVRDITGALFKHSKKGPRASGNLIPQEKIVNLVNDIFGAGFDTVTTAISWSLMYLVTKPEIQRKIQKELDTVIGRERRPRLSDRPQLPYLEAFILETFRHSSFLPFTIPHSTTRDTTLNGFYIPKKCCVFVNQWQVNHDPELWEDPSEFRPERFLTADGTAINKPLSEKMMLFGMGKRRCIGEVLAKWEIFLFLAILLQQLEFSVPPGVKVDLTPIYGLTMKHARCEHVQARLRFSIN

In data set [5] the target is Luciferin 4-monooxygenase (Photinus pyralis, UniProt P08659). The experiment in a line: firefly luciferase enzyme inhibitors, dose response, biochemical, luminescence (AID 1891).
Sequence of Luciferin 4-monooxygenase (P08659 whole entry): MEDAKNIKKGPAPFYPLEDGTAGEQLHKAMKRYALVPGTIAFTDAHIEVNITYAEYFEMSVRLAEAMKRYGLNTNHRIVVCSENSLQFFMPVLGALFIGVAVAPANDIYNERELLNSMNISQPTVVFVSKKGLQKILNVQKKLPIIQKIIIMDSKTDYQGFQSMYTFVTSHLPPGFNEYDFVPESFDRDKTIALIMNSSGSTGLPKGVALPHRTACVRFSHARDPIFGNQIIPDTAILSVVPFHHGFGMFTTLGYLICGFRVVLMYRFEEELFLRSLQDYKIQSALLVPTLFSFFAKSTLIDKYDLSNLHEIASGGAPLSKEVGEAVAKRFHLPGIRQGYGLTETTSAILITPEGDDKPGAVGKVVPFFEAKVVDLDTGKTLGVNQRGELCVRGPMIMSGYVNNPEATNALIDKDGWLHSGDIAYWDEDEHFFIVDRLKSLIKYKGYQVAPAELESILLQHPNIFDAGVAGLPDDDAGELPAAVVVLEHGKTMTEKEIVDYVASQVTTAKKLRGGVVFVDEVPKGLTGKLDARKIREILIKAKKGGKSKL
The target of the next data set is Cytochrome P450 2D6 (Homo sapiens, UniProt P10635).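 Also: CYP2D6 member of a cytochrome P450 panel assay.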
Sequence of Cytochrome P450 2D6 (P10635 whole entry): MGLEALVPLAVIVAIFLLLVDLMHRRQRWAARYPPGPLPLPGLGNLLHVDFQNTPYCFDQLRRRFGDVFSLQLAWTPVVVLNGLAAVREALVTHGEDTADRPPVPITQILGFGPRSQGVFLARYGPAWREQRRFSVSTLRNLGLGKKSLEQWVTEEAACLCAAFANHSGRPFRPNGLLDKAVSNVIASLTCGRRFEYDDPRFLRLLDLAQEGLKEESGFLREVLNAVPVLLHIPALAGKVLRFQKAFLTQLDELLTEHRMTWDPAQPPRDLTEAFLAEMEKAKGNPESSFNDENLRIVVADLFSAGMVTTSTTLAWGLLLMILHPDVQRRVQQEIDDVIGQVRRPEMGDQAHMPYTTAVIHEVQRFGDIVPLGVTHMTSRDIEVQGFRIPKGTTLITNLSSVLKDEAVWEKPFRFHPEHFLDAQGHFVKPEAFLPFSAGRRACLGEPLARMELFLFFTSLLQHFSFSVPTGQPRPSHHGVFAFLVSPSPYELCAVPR
The next data set concerns the target Cytochrome P450 2C19 (Homo sapiens, UniProt P33261). The experiment in a line: Cytochrome panel assay with activity outcomes. Panel member name: p450-cyp2c19 Compounds with AC50 equal or less than 10 uM are considered active. In kind it is functional. To be noted: read-out: AC50.
In the next data set the test system is H9c2. The experiment in a line: cells. In kind it is functional, cell-based. To be noted: Rattus norvegicus, H9c2, Myocardium.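 Also: confirmatory concentration-response retest of ultra-high-throughput screening hits for modulation of myocardial damage; cell death induced by hydrogen peroxide oxidative stress; compound pretreatment for 60 min then peroxide exposure for 2 h; potency is for protecting the cells against peroxide damage rather than for killing them.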
The target of the next data set is Cytochrome P450 3A4 (Homo sapiens, UniProt P08684).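 Also: CYP3A4 tested as one member of a cytochrome P450 panel screen.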
Sequence of Cytochrome P450 3A4 (P08684 whole entry): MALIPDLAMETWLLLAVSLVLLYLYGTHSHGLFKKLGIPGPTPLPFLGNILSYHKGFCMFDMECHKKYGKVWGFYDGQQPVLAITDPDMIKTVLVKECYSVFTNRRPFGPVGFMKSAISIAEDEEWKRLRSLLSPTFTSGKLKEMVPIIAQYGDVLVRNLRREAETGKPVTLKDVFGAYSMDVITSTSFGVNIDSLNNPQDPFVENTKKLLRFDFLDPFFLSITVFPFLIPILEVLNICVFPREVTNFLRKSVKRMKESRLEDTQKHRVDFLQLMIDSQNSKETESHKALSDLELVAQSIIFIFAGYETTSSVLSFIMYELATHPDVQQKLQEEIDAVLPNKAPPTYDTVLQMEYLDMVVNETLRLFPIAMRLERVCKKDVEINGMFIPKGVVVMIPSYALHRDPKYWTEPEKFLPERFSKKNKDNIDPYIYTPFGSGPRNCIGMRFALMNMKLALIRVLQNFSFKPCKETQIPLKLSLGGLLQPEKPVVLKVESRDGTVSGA
In a further data set the test system is INS1. The experiment in a line: beta cell apoptosis inhibitors, cytokine rescue, dose response, luminescence, retest (AID 449756).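 Also: cell death triggered by IL-1 beta plus TNF-alpha plus IFN-gamma mixture; protective hits raise ATP signal compared with cytokine alone wells.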 It is filed as functional, cell-based. To be noted: Rattus norvegicus.
For the next data set, the target named is Nonstructural protein 1 (Influenza A virus, UniProt Q194T2). In kind it is functional, Influenza A virus (A/California/07/2009(H1N1)).
Sequence of Nonstructural protein 1 (Q194T2 whole entry): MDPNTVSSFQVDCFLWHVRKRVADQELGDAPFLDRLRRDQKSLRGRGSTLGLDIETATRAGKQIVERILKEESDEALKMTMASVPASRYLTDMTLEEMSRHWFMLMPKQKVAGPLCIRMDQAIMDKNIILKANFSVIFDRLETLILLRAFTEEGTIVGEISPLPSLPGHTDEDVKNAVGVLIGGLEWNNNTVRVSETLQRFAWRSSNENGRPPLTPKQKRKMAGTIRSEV
In data set [6] the target is T3, Zinc finger protein mex-5 (Caenorhabditis elegans, UniProt Q9XUB2).
T3 sequence (Q9XUB2 whole entry): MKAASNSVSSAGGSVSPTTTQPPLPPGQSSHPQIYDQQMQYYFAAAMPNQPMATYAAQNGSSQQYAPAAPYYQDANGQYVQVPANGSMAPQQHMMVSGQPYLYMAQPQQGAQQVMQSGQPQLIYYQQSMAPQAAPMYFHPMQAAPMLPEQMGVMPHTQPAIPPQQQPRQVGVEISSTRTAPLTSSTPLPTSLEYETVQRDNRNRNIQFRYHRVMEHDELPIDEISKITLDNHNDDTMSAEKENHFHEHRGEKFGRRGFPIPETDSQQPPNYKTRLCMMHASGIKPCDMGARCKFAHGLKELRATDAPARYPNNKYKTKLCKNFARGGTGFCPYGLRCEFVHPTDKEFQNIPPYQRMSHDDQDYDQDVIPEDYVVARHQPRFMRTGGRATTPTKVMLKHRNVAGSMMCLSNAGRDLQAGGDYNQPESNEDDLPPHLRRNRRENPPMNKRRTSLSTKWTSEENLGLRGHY
The experiment in a line: MEX-5/TCR-2 RNA interaction inhibitors, dose response, biochemical, C. elegans, fluorescence polarization (AID 1960).

Data set [7] deals with T4, RNA-binding protein pos-1 (Caenorhabditis elegans, UniProt G5EF15).
T4 sequence (G5EF15 whole entry): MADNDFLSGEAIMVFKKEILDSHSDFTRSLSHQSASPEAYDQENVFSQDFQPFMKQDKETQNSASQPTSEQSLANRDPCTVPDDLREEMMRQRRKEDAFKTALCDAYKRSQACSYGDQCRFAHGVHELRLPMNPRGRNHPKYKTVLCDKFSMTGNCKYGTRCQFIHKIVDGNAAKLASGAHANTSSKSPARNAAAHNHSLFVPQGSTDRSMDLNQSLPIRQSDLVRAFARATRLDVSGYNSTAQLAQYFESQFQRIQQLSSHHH
The experiment in a line: inhibitors of POS-1/mex-3 RNA binding, dose response, biochemical, fluorescence polarization (AID 1964).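 Also: purified POS-1 fused to maltose binding protein made in E. coli; potency of compounds blocking POS-1 binding to fluorescent RNA.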

A short description of data set [8]: inhibitors of clade B AD8 Env fusion, dose response, cell-based, cherry-pick (AID 652062).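 Also: luciferase signal from cell-cell fusion driven by HIV-1 clade B AD8 Env; potency is for inhibitors of fusion seen as a drop in luminescence.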 In kind it is functional.

Sequence of Cytochrome P450 2C19 (P33261 whole entry): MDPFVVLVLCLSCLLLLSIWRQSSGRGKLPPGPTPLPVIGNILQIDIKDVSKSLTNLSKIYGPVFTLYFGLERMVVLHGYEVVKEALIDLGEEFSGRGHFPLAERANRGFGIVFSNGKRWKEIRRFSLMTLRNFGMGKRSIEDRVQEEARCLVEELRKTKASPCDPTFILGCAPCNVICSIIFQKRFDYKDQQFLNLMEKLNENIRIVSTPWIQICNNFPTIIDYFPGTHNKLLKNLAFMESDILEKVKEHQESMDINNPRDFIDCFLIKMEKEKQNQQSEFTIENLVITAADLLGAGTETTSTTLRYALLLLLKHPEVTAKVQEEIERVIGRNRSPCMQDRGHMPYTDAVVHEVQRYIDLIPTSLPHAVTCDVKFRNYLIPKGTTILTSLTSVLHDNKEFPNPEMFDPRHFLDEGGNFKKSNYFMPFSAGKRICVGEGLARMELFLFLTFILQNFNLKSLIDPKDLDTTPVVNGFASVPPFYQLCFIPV

Regarding `Cc1nn(-c2ccccc2)c(C)c1C(=O)Nc1nnc(-c2ccco2)o1`, the 50% effective concentration (EC50) is 1.03 µM (active) in [1] and > 150 µM (inactive) in data set [2].
On to `O=C(c1cccc(F)c1)N1CCN(Cc2cccc(Br)c2)CC1`, for which the concentration for half-maximal inhibition (IC50) in data set [3] was 136 µM (active).
On the same count and under the same terms, then `COc1ccc(OCCOCCN2CCN(C)CC2)cc1`, with 70.2 µM (active).
In the case of `Cc1cc2nnc(SCC(=O)OC(C)C)n2c2ccccc12`, the concentration at half-maximal activity (AC50) entry at Cytochrome P450 2C9 is “inconclusive”.
On the same count and under the same terms, to `COc1cc(/C=C(\C#N)C(=O)NCC2CCCO2)c([N+](=O)[O-])cc1OC` (stereo not drawn) belongs “inconclusive”.
For `CCOc1ccc(CN(C(=O)c2oc3ccccc3c2C)C2CCS(=O)(=O)C2)cc1` (stereo not drawn), the EC50 is > 112 µM (not active) in data set [4], > 38 µM (not active) in data set [1], 28.3 µM (active) in [5] and > 160 µM (inconclusive) in data set [2]. For the same compound, the AC50 on Cytochrome P450 1A2 and at Cytochrome P450 2D6 was 14.1 µM (inconclusive) each time.
In the case of `CCC(C)NC(=O)NC(=O)N(C1CCCCC1)S(C)(=O)=O` (stereo not drawn), the concentration at half-maximal activity (AC50) at Cytochrome P450 2C19 is 17.8 µM (inconclusive); on Cytochrome P450 2C9, “inconclusive”.
Regarding `COc1ccc(NC2CCCN(C(=O)COc3ccc(Cl)cc3C)C2)cc1OC` (stereo not drawn), in data set [3], the IC50 was 110 µM (active).
Regarding `CC(C)(C)NC(=O)c1cc(NC(=O)c2cccs2)cc(NC(=O)c2cccs2)c1`, the IC50 with H9c2 is 11.1 µM (active).
Still for that read-out and setting: then `C[C@H](NC(=O)c1[nH]cnc1C(=O)NCC(=O)OCc1ccccc1)C(=O)OCc1ccccc1`, with 19.4 µM (active); and `COC(=O)c1cc(OC)c(OC)cc1NC(=O)c1ccc(OC)c(OC)c1`, with > 79 µM (inactive).
For `COc1ccc(S(=O)(=O)N(C)CC(=O)NCc2ccco2)cc1`, the AC50 result on Cytochrome P450 2C9 is “inconclusive”; on Cytochrome P450 3A4, 15.8 µM (inconclusive).
For the compound `COc1ccc(C(=O)On2c(-c3ccc(Br)cc3)nc3ccccc3c2=O)cc1`, the EC50 was 1.8 µM (active) in data set [1] and 6.36 µM (inconclusive) in [2].
The matching figures for `CC(C)(C)c1ccc(SCC(N)=O)cc1`: > 38 µM (not active) and > 150 µM (inconclusive).
For the compound `Clc1ccc(Cl)c(OCc2cc(-c3ccccc3Cl)on2)c1`, the results for the AC50 on Cytochrome P450 2C19, at Cytochrome P450 1A2 and on Cytochrome P450 2C9 were 0.891 µM (inconclusive), 0.282 µM (inconclusive) and “inconclusive”, respectively.
On to `Cc1ccc(-c2ccc(=O)n(CC(=O)NCCN3CCCCC3C)n2)cc1` (stereo not drawn), for which the AC50 is 35.5 µM (inconclusive) at Cytochrome P450 2C19, “inconclusive” at Cytochrome P450 2C9 and 17.8 µM (inconclusive) at Cytochrome P450 3A4.
As to `COc1ccc(N2CCN(CC(=O)N3c4ccccc4CC3C)CC2)cc1` (stereo not drawn), the 50% inhibitory concentration (IC50) in [3] was 79.7 µM (active).
For `NC(=O)c1ccc(Nc2nnc(-c3ccc(O)cc3)c3ccccc23)cc1`, the concentration giving a half-maximal response (EC50) is > 38 µM (not active) in [1] and > 150 µM (inactive) in [2]. In the data set on H9c2, the 50% inhibitory concentration (IC50) is 15 µM (active).
In the case of `Cc1cc(Cl)ccc1NNC(=O)c1c(C)noc1C`, the results for the EC50 in data set [1] and in data set [2] were > 38 µM (not active) and 32.7 µM (active), respectively.
For the compound `Cc1ccc(S(=O)(=O)N2CCOCC2)cc1C(=O)Nc1nc(-c2ccccn2)cs1`, the IC50 with H9c2 was 11.3 µM (active). Also, in the data set with INS1, the AC50 is 2.19 µM (active).
Regarding `COc1ccc(Sc2nc3ccccc3n3c(C(F)(F)F)nnc23)cc1`, the AC50 at Cytochrome P450 2C19 is 35.5 µM (inconclusive); at Cytochrome P450 1A2 it was 3.16 µM (inconclusive); at Cytochrome P450 2C9, “inconclusive”.
Regarding `CN1CCc2c(sc3c2C(=O)NC(c2ccccn2)N3)C1` (stereo not drawn), the IC50 at Nonstructural protein 1 is 13.7 µM (active). The half-maximal effective concentration (EC50) was 14.3 µM (active) in data set [6] and 15.1 µM (active) in data set [7].
As to `Cc1ccc(-n2cc(-c3ccccc3)c3c(N4CCOCC4)ncnc32)cc1`, the IC50 with H9c2 was > 79 µM (inactive).
Still for that read-out and setting: then `CSc1nnc(NC(=O)c2cc3ccccc3oc2=O)s1`, with > 79 µM (inactive).
Turning to `CCS(=O)(=O)N1CCC(C(=O)NCc2ccccc2OC)CC1`, the AC50 result on Cytochrome P450 2C9 is on record as “inconclusive”.
`O=C(COC(=O)c1cccc(S(=O)(=O)N2CCOCC2)c1)NCc1ccccc1`: the AC50 in [8] was 59.6 µM (active).
Take `O=C(COC(=O)c1ccc([N+](=O)[O-])o1)Nc1ccc(N2CCOCC2)cc1`: the IC50 in the data set with H9c2 is > 79 µM (inactive).
In the case of `COc1ccc(S(=O)(=O)NC[C@@H]2CC[C@H]3[C@H](CN3Cc3cc(F)ccc3F)O2)cc1`, in data set [8], the concentration at half-maximal activity (AC50) was 1.21 µM (active).
Same read-out and setting: then `O=C(C[C@@H]1C[C@H]2c3cc(NC(=O)C4CCC4)ccc3O[C@H]2[C@H](CO)O1)NCC(F)(F)F`, with 1.7 µM (active).
Take `CSc1nc(Cl)c(C#N)c(-c2ccc(C)cc2)n1`: the half-maximal effective concentration (EC50) is 1.55 µM (active) in data set [1] and > 150 µM (inconclusive) in [2].
As for `O=C(Cc1cccs1)N/N=C\c1ccc(O)cc1`, the IC50 in [3] was 39.3 µM (active).
On to `FC(F)(F)c1ccc(/C=N/N2CCN(Cc3cccc4ccccc34)CC2)cc1`, for which the AC50 on Cytochrome P450 2C19 was 11.2 µM (inconclusive); at Cytochrome P450 2C9, “inconclusive”.
On to `CCOC(=O)CC(/C(C)=N\O)c1ccccc1` (stereo not drawn), for which the concentration for a half-maximal effect (EC50) in data set [1] is > 38 µM (not active); in [2], > 160 µM (inactive).
